Patent US5039811A, “Preparation of N-(pyridinyl)-1H-indol-1-amines” (Hoechst-Roussel Pharmaceuticals Inc., priority 1990, dated 1991)
Structures can show the parent of a compound that is named as a salt. Where two headings read alike, the source gives them in different places.

Assays:
Format in all cases: in vivo
[1] = system: Tetrabenazine-Induced Ptosis; assay: Prevention of Tetrabenazine-Induced Ptosis in Mice; conditions: Mus musculus, read-out: Ed50 (prevention of tetrabenazine-induced ptosis)
Method: The antidepressant activities were evaluated in this invention on the basis of prevention of Tetrabenazine-induced ptosis in mice. The test method and results are described below.
Tetrabenazine (TBZ) induces behavioral depression with concomitant ptosis in mice similar to reserpine. Antidepressant compounds, both monoamineoxidase inhibitors and tricyclics, are known to prevent or antagonize these effects and the degree of antagonism correlates with clinical efficacy. The prevention of TBZ-induced ptosis in mice is used as a preliminary screen for possible antidepressant activity. The method used in this invention is as follows:
Male mice weighing 20 to 30 grams are used in test groups of five subjects. All compounds are dissolved or suspended with a suitable surfactant in distilled water and administered in volumes of 10 ml/kg of body weight. TBZ solution is made from the methanesulfonate salt and the concentration is adjusted to enable administration of 60 mg/kg of base by intraperitoneal (i.p.) injection.
The pretreatment time is measured from the time of dosing to observation. Therefore, when a 30-minute pretreat is utilized, drug and TBZ are given simultaneously. A control group received solvent and TBZ at intervals identical to drug group. For a primary screen, the drug is administered i.p. and a group size of five is utilized. Eight animals/group are used for a dose range.
The total score for each group of five in a primary screen will, therefore, be from 0 to 20 and these scores are used as indications of drug activity.
The vehicle control group score is used as a determinant of the validity of each test. […] The calculation of percent inhibition of ptosis is: [formula]

[2] = system: Scopolamine Induced Memory Deficit; assay: Dark Avoidance Assay (reversal of scopolamine induced memory deficit); conditions: s.c., mice
Method: In this assay mice are tested for their ability to remember an unpleasant stimulus for a period of 24 hours. A mouse is placed in a chamber that contains a dark compartment; a strong incandescent light drives it to the dark compartment, where an electric shock is administered through metal plates on the floor. The animal is removed from the testing apparatus and tested again, 24 hours later, for the ability to remember the electric shock.
If scopolamine, an anticholinergic that is known to cause memory impairment, is administered before an animal's initial exposure to the test chamber, the animal re-enters the dark compartment shortly after being placed in the test chamber 24 hours later.

[3] = system: 2-phenyl-1,4-benzoquinone-induced writhing; assay: 2-phenyl-1,4-benzoquinone-induced writhing (PQW) test in mice; conditions: Mus musculus, sc, read-out: ANALGESIC ACTIVITY ED50, POW
Excerpt: (§1) Compounds I of the present invention are also useful as analgesic agents due to their ability to alleviate pain in mammals. […] Exptl. Biol. Med., 95, 729 (1957)] and in modified Haffner's analgesia.

[4] = system: sensitivity of mice to pressure stress (artery clip on tail); assay: Modified Haffner's Analgesia (tail clip pressure stress); conditions: Mus musculus, sc, read-out: ANALGESIC ACTIVITY ED50, Modified Haffner's Analgesia
Excerpt: as §1
The latter assay is used to evaluate analgesic activity by measuring drug-induced changes in the sensitivity of mice to pressure stress by placing an artery clip (21/2 inches long) on their tail. The procedure used is a modification of the test developed by Haffner, Dtsch. Med. Wschr. 55, 731 (1929), and it is described below.
Male mice (Charles River, DC-1), from 18-30 grams are used for the test. An artery clip is applied to the root of the tail of a mouse (approximately 1/2 inch from the body) to induce pain. The animals quickly respond to this noxious stimuli by biting the clip or the location of the clip. This reaction time, the interval between stimulus onset and response, is recorded in 1/10 second increments by a stop watch.
For a time response, the screening dose (25 mg/kg) is administered subcutaneously (10 ml/kg) to the animal receiving food and water ad libitum before testing. Animals receiving the compound orally are fasted 18-24 hours before drug administration. Drug to be tested is prepared with distilled water and if insoluble, one drop of a surfactant is added.
Twenty-eight animals (seven/group) are administered the drug 15, 30, 45 and 60 minutes prior to testing.
The cut-off time (CO) is determined by taking the Xav +3σ of the combined response latencies of the control mice in all time periods where Xav is the average of X and σ is the standard deviation.
Any reaction time, in subsequent drug tests, which is greater than the CO (for the same time period) therefore exceeds 99% of a normal Gaussian distribution and is called "positive response" indicative of analgesic activity. A time response indicates the period of greatest analgesic effect after dosing. The ED50 is determined at the peak time of drug activity. A minimum of three dose groups are used. ED50 's are calculated using computer analysis.

[5] = po, male mice, TBZ 60 mg/kg i.p.
[6] = male mice, at peak time of drug activity
[7] = ip, male mice, TBZ 60 mg/kg i.p.

Row | SMILES | ED50 [1, 5] | ED50 ([3]; mice) | ED50 [4, 6] | other results
1 | CNCCCN1c2ccccc2CCc2ccccc21 [Desipramine, reference compound] | – | – | – | ED50 ([1]; po): 2.3 mg/kg
2 | O=C(O)/C=C\C(=O)O.c1ccc2c(c1)ccn2Nc1ccncc1 [Example 1, N-(4-Pyridinyl)-1H-indol-1-amine maleate] | 3.3 mg/kg | 0.86 mg/kg | 5.7 mg/kg | % of Animals With Scopolamine Induced Memory Deficit Reversed ([2]; 0.31 mg/kg body weight): 33%
3 | CN(c1ccncc1)n1ccc2ccccc21.O=C(O)/C=C\C(=O)O [Example 2, N-Methyl-N-(4-pyridinyl)-1H-indol-1-amine maleate] | 3.3 mg/kg | 3.2 mg/kg | 16.3 mg/kg | % of Animals With Scopolamine Induced Memory Deficit Reversed ([2]; 0.04 mg/kg body weight): 53%
4 | CCN(c1ccncc1)n1ccc2ccccc21.O=C(O)/C=C\C(=O)O [Example 3, N-Ethyl-N-(4-pyridinyl)-1H-indol-1-amine maleate] | 5.6 mg/kg | – | – | % of Animals With Scopolamine Induced Memory Deficit Reversed ([2]; 0.63 mg/kg body weight): 33%
5 | CCCN(c1ccncc1)n1ccc2ccccc21.O=C(O)/C=C\C(=O)O [Example 4, N-Propyl-N-(4-pyridinyl)-1H-indol-1-amine maleate] | 5.1 mg/kg | 5.1 mg/kg | 31 mg/kg | % of Animals With Scopolamine Induced Memory Deficit Reversed ([2]; 0.08 mg/kg body weight): 27%
6 | CCCN(c1ccncc1)n1ccc2cc(OC)ccc21.O=C(O)/C=C\C(=O)O [Example 5, 5-Methoxy-N-propyl-N-(4-pyridinyl)-1H-indol-1-amine maleate] | 29.8 mg/kg | – | – | –
7 | CN(c1ccncc1)n1cc(C=O)c2ccccc21 [Example 6, N-Methyl-N-(4-pyridinyl)-1H-indol-1-amine-3-carboxaldehyde maleate] | 9.7 mg/kg | – | – | –
8 | CCN(c1ccncc1)n1cc(C=O)c2ccccc21 [Example 7, N-Ethyl-N-(4-pyridinyl)-1H-indol-1-amine-3-carboxaldehyde maleate] | 11.9 mg/kg | – | – | –
9 | C=Cc1cn(N(C)c2ccncc2)c2ccccc12.O=C(O)/C=C\C(=O)O [Example 10, 3-Ethenyl-N-methyl-N-(4-pyridinyl)-1H-indol-1-amine maleate] | – | 1 mg/kg | 1 mg/kg | –
10 | CCc1cn(N(C)c2ccncc2)c2ccccc12.Cl [Example 11, 3-Ethyl-N-methyl-N-(4-pyridinyl)-1H-indol-1-amine hydrochloride] | – | 0.9 mg/kg | 1 mg/kg | –
11 | CN(c1ccncc1)n1ccc2cc([N+](=O)[O-])ccc21.O=C(O)/C=C\C(=O)O [Example 18, N-Methyl-5-nitro-N-(4-pyridinyl)-1H-indol-1-amine maleate] | – | 1 mg/kg | – | –
12 | Cc1cn(Nc2ccncc2)c2ccccc12.O=C(O)C(=O)O [Example 19, 3-Methyl-N-(4-pyridinyl)-1H-indol-1-amine oxalate] | – | 0.4 mg/kg | 0.7 mg/kg | ED50 [1, 7]: 1 mg/kg
13 | CCCN(c1ccncc1)n1cc(C)c2ccccc21.O=C(O)/C=C\C(=O)O [Example 20, 3-Methyl-N-propyl-N-(4-pyridinyl)-1H-indol-1-amine maleate] | – | 4.1 mg/kg | 1.4 mg/kg | % of Animals With Scopolamine Induced Memory Deficit Reversed ([2]; 0.31 mg/kg body weight): 27%; ED50 [1, 7]: 1.8 mg/kg
14 | CCCN(c1ccncc1F)n1cc(C)c2ccccc21.Cl [Example 22, N-(3-Fluoro-4-pyridinyl)-N-propyl-3-methyl-1H-indol-1-amine hydrochloride] | – | – | – | % of Animals With Scopolamine Induced Memory Deficit Reversed ([2]; 0.31 mg/kg body weight): 33%
15 | C=CCN(c1ccncc1)n1ccc2ccccc21.O=C(O)/C=C\C(=O)O [Example 23, N-(2-Propen-1-yl)-N-(4-pyridinyl)-1H-indol-1-amine maleate] | – | 1.3 mg/kg | 3.8 mg/kg | ED50 [1, 7]: 4.2 mg/kg
16 | CC(C)=CCN1CCC2(C)c3cc(O)ccc3CC1C2C (stereo not shown) [Pentazocine, reference compound] | – | – | – | ED50 [3]: 1.3 mg/kg; ED50 [4]: 3.9 mg/kg
17 | CNC(=O)Oc1ccc2c(c1)[C@]1(C)CCN(C)[C@@H]1N2C [Physostigmine, (3aS-cis)-1,2,3,3a,8,8a-hexahydro-1,3a,8-trimethyl-pyrrolo[2,3-b]indol-5-ol, methyl carbamate, reference compound] | – | – | – | % of Animals With Scopolamine Induced Memory Deficit Reversed ([2]; 0.31 mg/kg body weight): 20%
